The values below come from patent publication US10336702B2, “Pharmaceutically active compounds” (BERGENBIO ASA, priority 2015, dated 2019).

A value given as a limit tells only on which side of the number the result lay.

Test [1] concerns the target T1, Akt1 (Homo sapiens, UniProt P31749).
T1 construct: unspecified tag, removed (detagged) (cleaved yes); purchased SignalChem and Proteros (Akt1); Merck Millipore (PDK1) 14-452 (PDK1); none given for Akt1
The test can be described thus: Akt activation assay (PDK1-mediated activation, LANCE Ultra crosstide TR-FRET), Akt1. The class given is biochemical. The conditions noted are these: read-out: Biological Assay 1 IC50 (nM) Akt1. Here is the method:
(§1) Biological Assay 1: Akt Activation Assay
(§2) Addition of a Europium-labelled antibody specific to the phosphopeptide allows energy transfer from the Europium donor to the Ultra Ulight™ acceptor if close enough in proximity.
(§3) Full length active His6-tagged PDK1 was obtained from Merck Millipore (14-452).
(§4) 1× assay buffer (AB): 50 mM HEPES pH 7.5, 1 mM EGTA, 10 mM MgCl2, 0.01% Tween. Immediately before use, DTT to a concentration of 2 mM was added.
(§5) To prepare lipid vesicles: 1 mg/ml PtdIns(3,4,5)P3 solution (in 10 mM HEPES 7.5) was added to 16.7 mg/ml DOPS/DOPC mixture (in 10 mM HEPES pH 7.5) in a ratio of 1:8.3. MilliQ water was added to the solution to generate concentrations of 400 μM DOPS, 400 μM DOPC and 40 μM PtdIns(3,4,5)P3. The mixture was subjected to 5× freeze/thaw cycles and aliquots stored at −20° C.
(§6) 5 μL enzyme in 1×AB was incubated with 2.5 μL test compound. To start the reaction 2.5 μL reaction mix was added which consisted of PDK1, lipid preparations, crosstide and ATP in 1×AB. Final assay concentrations were as follows: 1% DMSO, 5 nM SignalChem Akt1/15 nM SignalChem Akt2/3 nM Signalchem Akt3/5 nM Proteros Akt1/5 nM proteros Akt2/5 nM Proteros Akt3, 5 nM PDK1, 5.5 μM DOPS, 5.5 μM DOPC, 0.55 μM PtdIns(3,4,5)P3, 100 μM ATP, 100 nM LANCE® Ultra Ulight™-Crosstide. After 30 min, the reaction was stopped using 5 μL 40 μM EDTA in 1× Detection buffer for 5 min. For detection, 5 μL 8 nM LANCE® Ultra Europium-anti-phospho-Crosstide antibody in 1× Detection buffer was added to each well and incubated for 1 h. Plates read with the EnVision® Multilabel Plate Reader, excitation at 320 nm and emission at 665 nm and 615 nm. Compound IC50 was determined using a 4-parameter equation.

For test [2], the target named is T2, Akt2 (Homo sapiens, UniProt P31751).
T2 construct: unspecified tag, removed (detagged) (cleaved yes); purchased SignalChem and Proteros (Akt2); Merck Millipore (PDK1) 14-452 (PDK1); none given for Akt2
The test can be described thus: Akt activation assay (PDK1-mediated activation, LANCE Ultra crosstide TR-FRET), Akt2. It counts as biochemical. The conditions noted are these: read-out: Biological Assay 1 IC50 (nM) Akt2. Here is the method:
as §1, §2, §3, §4, §5, §6

Test [3] deals with T3, Akt3 (Homo sapiens, UniProt Q9Y243).
T3 construct: unspecified tag, removed (detagged) (cleaved yes); purchased SignalChem and Proteros (Akt3); Merck Millipore (PDK1) 14-452 (PDK1); none given for Akt3
The test can be described thus: Akt activation assay (PDK1-mediated activation, LANCE Ultra crosstide TR-FRET), Akt3. The class given is biochemical. The conditions noted are these: read-out: Biological Assay 1 IC50 (nM) Akt3. On the procedure: as §1, §2, §3, §4, §5, §6
Background: In TR-FRET formats the signal depends on donor and acceptor labels being close together.

For test [4], the target named is T4, p-Akt2 in WM115 cells (Homo sapiens, UniProt P31751).
T4 construct: SureFire assays to detect cellular p-Akt1, p-Akt2 and p-Akt3 levels in WM115 cells (Akt2/3) and LNCaP cells (Akt1); endogenous in cells; host or cells: WM115 (ECACC 91061232), insulin-stimulated
The test can be described thus: Phospho-Akt cellular SureFire assay, p-Akt2 in WM115 cells. The conditions noted are these: insulin stimulated, read-out: Biological Assay 2 IC50 (nM) Akt2 WM115. The class given is cell-based. An excerpt: (§7) Biological Assay 2: Phospho-Akt (p-Akt) Cellular SureFire Assays
(§8) The following describes SureFire assays to detect cellular p-Akt1, p-Akt2 and p-Akt3 levels in WM115 cells (Akt2/3) and LNCaP cells (Akt1). In the case of Akt2 and Akt3, Streptavidin-coated donor beads capture a biotinylated anti-mouse antibody that in turn recognises a mouse total Akt antibody which is specific to each isoform. The protein A-conjugated acceptor beads capture an antibody that recognises the phosphoprotein. Similarly in the Akt1 kit, the donor and acceptor beads are used to capture each antibody pair consisting of an antibody that specifically recognises Akt1 as well as an antibody that recognises the phosphoprotein. In each case, close proximity of the beads allows energy transfer from donor to acceptor.
(§9) Custom kit from TGR/Perkin Elmer for Akt2/3 containing anti-(pThr308)Akt antibody and biotinylated anti-mouse capture antibody.
Total Akt2 antibody (NEB UK, 5239)
(§10) WM115 cells (ECACC, 91061232) cultured in MEM culture media (M2279) supplemented with 2 mM L-glutamine (G7513), 1% non-essential amino acids (M7145), 1% sodium pyruvate (S8636) and 10% FBS (F0804)
(§11) Cell treatment: 1×10^5 WM115 cells or 5×10^4 LNCaP cells were seeded into each well of a 96 well poly-D-Lysine coated tissue culture plate and incubated overnight at 37° C.+5% CO2. Media was removed from cells and replaced with assay buffer consisting of the full culture media described above but with 0.1% FBS instead of 10% FBS. Only WM115 cells were stimulated at 37° C.+5% CO2 for 10 min with 5 μL insulin at a final concentration of 100 nM. Cells were incubated with 5 μL of test compound at a final DMSO concentration of 0.3% for 15 min at 37° C.+5% CO2. Cell lysis was carried out according to kit instructions.
(§12) Assay format (performed in subdued lighting): 4 μL cell lysate and 5 μL reaction buffer were incubated together in the dark at room temperature for 2 h. Reaction buffer was supplemented with a 1/5 dilution of activation buffer, a 1/50 dilution of acceptor beads and in the case of the custom kits, antibodies were added at dilutions of 1/20,000 for Akt2 and 1/2,000 for Akt3.
(§13) 2 μL dilution buffer, supplemented with a 1/20 dilution of donor beads was added to each well and incubated for a further 2 h. Plates were read with the EnVision® Multilabel Plate Reader and using the AlphaScreen settings. Compound IC50 was determined using a 4-parameter equation.

Test [5] deals with T5, p-Akt3 in WM115 cells (Homo sapiens, UniProt Q9Y243).
T5 construct: SureFire assays to detect cellular p-Akt1, p-Akt2 and p-Akt3 levels in WM115 cells (Akt2/3) and LNCaP cells (Akt1); endogenous in cells; host or cells: WM115 (ECACC 91061232), insulin-stimulated
The test can be described thus: Phospho-Akt cellular SureFire assay, p-Akt3 in WM115 cells. The class given is cell-based. The conditions noted are these: insulin stimulated, read-out: Biological Assay 2 IC50 (nM) Akt3 WM115.
Source text: as §7, §8, §9
Total Akt3 antibody (R&D Systems MAB 1463)
as §10, §11, §12, §13

A word on the IC50: it is the midpoint of a concentration-inhibition curve.

T1 sequence (P31749 whole entry): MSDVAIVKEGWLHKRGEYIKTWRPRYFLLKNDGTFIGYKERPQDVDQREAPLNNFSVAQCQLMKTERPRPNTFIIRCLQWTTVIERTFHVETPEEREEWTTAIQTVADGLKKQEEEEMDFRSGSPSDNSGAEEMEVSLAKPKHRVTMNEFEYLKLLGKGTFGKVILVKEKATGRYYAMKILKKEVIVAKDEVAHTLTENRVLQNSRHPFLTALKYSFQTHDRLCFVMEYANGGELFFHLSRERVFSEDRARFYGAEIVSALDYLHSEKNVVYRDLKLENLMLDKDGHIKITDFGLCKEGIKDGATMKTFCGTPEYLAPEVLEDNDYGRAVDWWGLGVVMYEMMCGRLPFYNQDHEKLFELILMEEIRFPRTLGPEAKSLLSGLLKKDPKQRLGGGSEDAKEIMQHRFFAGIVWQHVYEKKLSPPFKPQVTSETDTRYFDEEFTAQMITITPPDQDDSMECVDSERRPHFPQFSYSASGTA
T2 sequence (P31751 whole entry): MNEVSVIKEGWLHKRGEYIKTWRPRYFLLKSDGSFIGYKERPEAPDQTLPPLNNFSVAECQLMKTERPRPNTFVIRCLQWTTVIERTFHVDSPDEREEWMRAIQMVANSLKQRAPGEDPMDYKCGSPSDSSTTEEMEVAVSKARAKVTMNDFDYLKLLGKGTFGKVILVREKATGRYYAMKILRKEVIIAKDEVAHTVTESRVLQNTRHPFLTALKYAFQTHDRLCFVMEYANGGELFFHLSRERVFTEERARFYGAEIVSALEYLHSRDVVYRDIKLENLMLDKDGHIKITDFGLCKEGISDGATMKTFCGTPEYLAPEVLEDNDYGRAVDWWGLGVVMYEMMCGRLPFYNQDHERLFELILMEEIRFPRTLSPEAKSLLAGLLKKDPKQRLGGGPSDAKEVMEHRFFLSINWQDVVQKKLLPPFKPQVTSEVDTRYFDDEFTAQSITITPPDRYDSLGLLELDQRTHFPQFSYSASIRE
T4 sequence (P31751 whole entry): as above
T3 sequence (Q9Y243 whole entry): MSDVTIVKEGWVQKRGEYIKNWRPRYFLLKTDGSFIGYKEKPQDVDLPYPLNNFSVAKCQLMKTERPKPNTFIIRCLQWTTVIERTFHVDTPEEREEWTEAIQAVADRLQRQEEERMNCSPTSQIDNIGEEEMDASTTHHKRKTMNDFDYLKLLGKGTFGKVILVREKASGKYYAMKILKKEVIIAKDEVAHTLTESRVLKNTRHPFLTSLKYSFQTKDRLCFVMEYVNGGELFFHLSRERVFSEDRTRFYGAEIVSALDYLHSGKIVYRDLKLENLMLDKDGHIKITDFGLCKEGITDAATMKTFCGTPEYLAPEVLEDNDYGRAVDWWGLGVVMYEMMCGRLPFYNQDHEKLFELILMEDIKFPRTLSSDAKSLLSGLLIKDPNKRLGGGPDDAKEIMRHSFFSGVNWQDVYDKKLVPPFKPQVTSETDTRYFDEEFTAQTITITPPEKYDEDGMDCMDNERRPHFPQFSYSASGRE
T5 sequence (Q9Y243 whole entry): as above

As for `CC(=O)N(C)[C@H]1CC[C@H](CC(=O)Nc2cc(-c3ccccc3)c(-c3ccc([C@]4(N)C[C@H](F)C4)cc3)nn2)CC1` [Example 46, N-(6-(4-(trans-1-amino-3-fluorocyclobutyl)phenyl)-5-phenylpyridazin-3-yl)-2-(trans-4-(N-methylacetamido)cyclohexyl)acetamide], the IC50 amounted to 11000 nM in test [1]; 440 nM in test [2]; 100 nM in test [3]; 2600 nM in test [4]; 46 nM in test [5].

On to `CCC(=O)N(C)[C@H]1CC[C@H](CC(=O)Nc2cnc(-c3ccc(C4(N)CC4)c(F)c3)c(-c3ccccc3)c2)CC1` [Example 90, N-(trans-4-(2-((6-(4-(1-aminocyclopropyl)-3-fluorophenyl)-5-phenylpyridin-3-yl)amino)-2-oxoethyl)cyclohexyl)-N-methylpropionamide], for which the concentration for half-maximal inhibition (IC50) stood at 2500 nM in test [2], 120 nM in test [3], 6500 nM in test [4] and 170 nM in test [5].

With `CCC(=O)N(C)[C@H]1CC[C@H](CC(=O)Nc2cc(-c3ccccc3)c(-c3ccc([C@]4(N)C[C@H](F)C4)cc3)nn2)CC1` [Example 123, N-(trans-4-(2-((6-(4-(trans-1-amino-3-fluorocyclobutyl)phenyl)-5-phenylpyridazin-3-yl)amino)-2-oxoethyl)cyclohexyl)-N-methylpropionamide], the IC50 was above 25000 nM in test [1]; 230 nM in test [2]; 12 nM in test [3]; 1700 nM in test [4]; 38 nM in test [5].

For the molecule `CC(=O)N(C(C)C)[C@H]1CC[C@H](CC(=O)Nc2cnc(-c3ccc(C4(N)CCC4)cc3)c(-c3ccccc3)c2)CC1` [Example 49, N-(6-(4-(1-aminocyclobutyl)phenyl)-5-phenylpyridin-3-yl)-2-(trans-4-(N-isopropylacetamido)cyclohexyl)acetamide], the IC50 amounted to 6900 nM in test [1]; 530 nM in test [2]; 280 nM in test [3]; 2900 nM in test [4]; 140 nM in test [5].

As to `COC(=O)N(C)[C@H]1CC[C@H](CC(=O)Nc2cc(-c3ccsc3)c(-c3ccc([C@]4(N)C[C@](C)(O)C4)cc3)cn2)CC1` [Example 89, Methyl (trans-4-(2-((5-(4-(trans-1-amino-3-hydroxy-3-methylcyclobutyl)phenyl)-4-(thiophen-3-yl)pyridin-2-yl)amino)-2-oxoethyl)cyclohexyl)(methyl)carbamate], the IC50 came to 3000 nM in test [4] and 57 nM in test [5].

Take `CC(=O)N(C)[C@H]1CC[C@H](CC(=O)Nc2cnc(-c3ccc(C4(N)CC4)cc3)c(-c3ccccc3)c2)CC1` [Example 12, N-(6-(4-(1-aminocyclopropyl)phenyl)-5-phenylpyridin-3-yl)-2-(trans-4-(N-methylacetamido)cyclohexyl)acetamide]: the half-inhibitory concentration (IC50) in test [2] was 1000 nM; in test [3], 84 nM; in test [4], 2300 nM; in test [5], 220 nM.

As for `CCC(=O)N(CC)[C@H]1CC[C@H](CC(=O)Nc2cc(-c3ccccc3)c(-c3ccc([C@]4(N)C[C@](C)(O)C4)cc3)cn2)CC1` [Example 115, N-(trans-4-(2-((5-(4-(trans-1-amino-3-hydroxy-3-methylcyclobutyl)phenyl)-4-phenylpyridin-2-yl)amino)-2-oxoethyl)cyclohexyl)-N-ethylpropionamide], the IC50 in test [1] is above 30000 nM; in test [2] it was 330 nM; in test [3], 24 nM; in test [4], 1000 nM; in test [5], 15 nM.

For the molecule `NC1(c2ccc(-c3ncc(NC(=O)C[C@H]4CC[C@H](N5CCOC5=O)CC4)cc3-c3ccccc3)cc2)CC(F)(F)C1` [Example A3, N-(6-(4-(1-amino-3,3-difluorocyclobutyl)phenyl)-5-phenylpyridin-3-yl)-2-(trans-4-(2-oxooxazolidin-3-yl)cyclohexyl)acetamide], the IC50 in test [1] was above 5100 nM; in test [2] it was 530 nM; in test [3], 150 nM; in test [4] it was 2600 nM; in test [5] it was 100 nM.

On to `CC(=O)N(C)[C@H]1CC[C@H](CC(=O)Nc2cc(-c3ccsc3)c(-c3ccc(C4(N)CCC4)cc3)nn2)CC1` [Example A97, N-(6-(4-(1-aminocyclobutyl)phenyl)-5-(thiophen-3-yl)pyridazin-3-yl)-2-(trans-4-(N-methylacetamido)cyclohexyl)acetamide], for which the concentration for half-maximal inhibition (IC50) in test [2] was 430 nM; in test [3] it was 9 nM; in test [4], 3200 nM; in test [5], 41 nM.

Consider `CCN(C(C)=O)[C@H]1CC[C@H](CC(=O)Nc2cc(-c3ccccc3)c(-c3ccc([C@]4(N)C[C@](C)(O)C4)cc3)cn2)CC1` [Example 108, N-(5-(4-(trans-1-amino-3-hydroxy-3-methylcyclobutyl)phenyl)-4-phenylpyridin-2-yl)-2-(trans-4-(N-ethylacetamido)cyclohexyl)acetamide], for which the IC50 turned out to be 220 nM in test [2], 10 nM in test [3], 670 nM in test [4] and 16 nM in test [5].

Regarding `COC(=O)N(C)C1CCC(CC(=O)Nc2cnc(-c3ccc(C4(N)CC(F)C4)cc3)c(-c3ccsc3)c2)CC1` (stereo not drawn) [Example A66, Methyl (trans-4-(2-((6-(4-(trans-1-amino-3-fluorocyclobutyl)phenyl)-5-(thiophen-3-yl)pyridin-3-yl)amino)-2-oxoethyl)cyclohexyl)(methyl)carbamate], the IC50 in test [2] amounted to 1100 nM; in test [3] it was 44 nM; in test [4], 10000 nM; in test [5], 420 nM.

For the molecule `COC(=O)N(C)[C@H]1CC[C@H](CC(=O)Nc2cc(-c3ccccc3F)c(-c3ccc([C@]4(N)C[C@](C)(O)C4)cc3)cn2)CC1` [Example 96, Methyl (trans-4-(2-((5-(4-(trans-1-amino-3-hydroxy-3-methylcyclobutyl)phenyl)-4-(2-fluorophenyl)pyridin-2-yl)amino)-2-oxoethyl)cyclohexyl)(methyl)carbamate], the IC50 in test [2] came to 140 nM; in test [3], 18 nM; in test [4] it was 1300 nM; in test [5] it was 51 nM.
